Key:
[1] = system: human lung cancer strain NCI-H441; assay: cells; conditions: NCI-H441, 96 h, read-out: NCI-H441 IC50 (nM), NCI-H441 cell proliferation, 4 days, CellTiter-Glo;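 further: cell proliferation inhibition after four days measured by CellTiter-Glo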
[2] = target: GDP-bound HRAS wild-type protein (Homo sapiens, UniProt P01112); assay: Binding to HRAS by surface plasmon resonance (SPR), Single Cycle Kinetics; conditions: ratio of KD for GDP-bound HRAS wild-type protein to KD for KRAS, SPR
GDP-bound HRAS wild-type protein, sequence (P01112 whole entry): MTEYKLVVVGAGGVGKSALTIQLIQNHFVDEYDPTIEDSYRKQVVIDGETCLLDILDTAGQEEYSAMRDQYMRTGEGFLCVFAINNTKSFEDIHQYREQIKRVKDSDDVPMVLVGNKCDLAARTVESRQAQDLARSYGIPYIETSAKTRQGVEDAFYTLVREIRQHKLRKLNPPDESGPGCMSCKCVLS

[3] = target: GDP-bound NRAS wild-type protein (Homo sapiens, UniProt P01111); assay: Binding to NRAS by surface plasmon resonance (SPR), Single Cycle Kinetics; conditions: ratio of KD for GDP-bound NRAS wild-type protein to KD for KRAS, SPR
GDP-bound NRAS wild-type protein, sequence (P01111 whole entry): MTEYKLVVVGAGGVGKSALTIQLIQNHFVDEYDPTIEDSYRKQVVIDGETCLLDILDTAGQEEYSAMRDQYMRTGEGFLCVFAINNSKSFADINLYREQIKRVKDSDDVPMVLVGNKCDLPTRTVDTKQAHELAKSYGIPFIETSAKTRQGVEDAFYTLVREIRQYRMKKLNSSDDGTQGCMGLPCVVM

[4] = target: GDP-bound KRAS wild-type protein (Homo sapiens, UniProt P01116); assay: Binding to KRAS by surface plasmon resonance (SPR), Single Cycle Kinetics; conditions: SPR, Single Cycle Kinetics, GDP-bound KRAS wild-type protein; read-out: KRAS KD
GDP-bound KRAS wild-type protein, sequence (P01116 whole entry): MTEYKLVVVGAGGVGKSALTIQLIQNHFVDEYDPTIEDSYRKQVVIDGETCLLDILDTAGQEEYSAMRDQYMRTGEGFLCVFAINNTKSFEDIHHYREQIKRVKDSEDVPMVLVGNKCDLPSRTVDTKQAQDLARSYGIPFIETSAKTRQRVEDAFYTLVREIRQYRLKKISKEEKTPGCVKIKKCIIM

Structure (SMILES)	IC50 [1] [nM]	Kd [4] [nM]	HRAS/KRAS (KD ratio) [2]	NRAS/KRAS (KD ratio) [3]
CCCOC[C@H]1C(=O)N[C@@H]([C@@H](C)CC)C(=O)N(C)CC(=O)N(C)[C@H]2C/C=C\CCN(C2=O)[C@@H](Cc2ccc(C(F)(F)F)cc2)C(=O)N(C)CC(=O)N[C@@H](CCc2ccc(C(F)(F)F)c(OC)c2)C(=O)N2C[C@@H](C)C[C@H]2C(=O)NC2(CC(C)(C)C2)C(=O)N(C)[C@@H](C2CCCC2)C(=O)N(C)[C@H](C(=O)N(C)CC)CC(=O)N1C [PP1995]	17.8	0.21	B (a compound having 3 or more and less than 10 is denoted as B)	A (a compound having 10 or more and less than 20 is denoted as A)
CC[C@H](C)[C@@H]1NC(=O)[C@H](C2CC2)N(C)C(=O)C[C@@H](C(=O)N(C)CC)N(C)C(=O)[C@H](C2CCCC2)N(C)C(=O)C2(CC(C)(C)C2)NC(=O)[C@@H]2C[C@H](C)CN2C(=O)[C@H](CCc2ccc(C(F)(F)F)c(OC)c2)NC(=O)CN(C)C(=O)[C@H](Cc2ccc(C(F)(F)F)cc2)N2CC/C=C\C[C@@H](C2=O)N(C)C(=O)CN(C)C1=O [PP2007]	14.9	0.14	B (a compound having 3 or more and less than 10 is denoted as B)	AA (a compound having 20 or more is denoted as AA)
CCO[C@@H]1C[C@H]2C(=O)NC3(CC(C)(C)C3)C(=O)N(C)[C@@H](C3CCCCC3)C(=O)N(C)[C@H](C(=O)N(C)C)CC(=O)N(C)[C@@H](CC)C(=O)N[C@@H]([C@@H](C)CC)C(=O)N(C)CC(=O)N(C)[C@H]3C/C=C\CCN(C3=O)[C@@H](Cc3ccc(C(F)(F)F)cc3)C(=O)N(C)CC(=O)N[C@@H](CCc3cc(F)c(C(F)(F)F)c(F)c3)C(=O)N2C1 [PP1942]	25.7	0.15	A (a compound having 10 or more and less than 20 is denoted as A)	AA (a compound having 20 or more is denoted as AA)
CC[C@H](C)[C@@H]1NC(=O)[C@H](CC)N(C)C(=O)C[C@@H](C(=O)N(C)C)N(C)C(=O)[C@H](C2CCCC2)N(C)C(=O)C2(CC(C)(C)C2)NC(=O)[C@H](CC)N(C)C(=O)[C@H](CCc2cc(F)c(C(F)(F)F)c(F)c2)NC(=O)CN(C)C(=O)[C@H](Cc2ccc(C(F)(F)F)cc2)N2CC/C=C\C[C@@H](C2=O)N(C)C(=O)CN(C)C1=O [PP1935]	13.1	0.46	A (a compound having 10 or more and less than 20 is denoted as A)	A (a compound having 10 or more and less than 20 is denoted as A)
CC[C@H](C)[C@@H]1NC(=O)[C@H](CC(C)C)N(C)C(=O)C[C@@H](C(=O)N(C)CC)N(C)C(=O)[C@H](C2CCCC2)N(C)C(=O)C2(CCC2)NC(=O)[C@@H]2C[C@H](C)CN2C(=O)[C@H](CCc2ccc(C(F)(F)F)c(OC)c2)NC(=O)CN(C)C(=O)[C@H](Cc2ccc(C)cc2)N2CC/C=C\C[C@@H](C2=O)N(C)C(=O)CN(C)C1=O [PP1904]	18.3	0.12	B (a compound having 3 or more and less than 10 is denoted as B)	A (a compound having 10 or more and less than 20 is denoted as A)
CCCOC[C@H]1C(=O)N[C@@H]([C@@H](C)CC)C(=O)N(C)CC(=O)N(C)[C@H]2C/C=C\CCN(C2=O)[C@@H](Cc2ccc(C(F)(F)F)cc2)C(=O)N(C)CC(=O)N[C@@H](CCc2cc(F)c(Cl)c(F)c2)C(=O)N2C[C@H](OCC)C[C@H]2C(=O)NC2(CC(C)(C)C2)C(=O)N(C)[C@@H](C2CCCC2)C(=O)N(C)[C@H](C(=O)N(C)C)CC(=O)N1C [PP1764]	11.1	0.11	A (a compound having 10 or more and less than 20 is denoted as A)	AA (a compound having 20 or more is denoted as AA)
CCC[C@H]1C(=O)N[C@@H]([C@@H](C)CC)C(=O)N(C)CC(=O)N(C)[C@H]2C/C=C\CCN(C2=O)[C@@H](Cc2ccc(C(F)(F)F)cc2)C(=O)N(C)CC(=O)N[C@@H](CCc2cc(F)c(C(F)(F)F)c(F)c2)C(=O)N2C[C@H](OCC)C[C@H]2C(=O)NC2(CC(C)(C)C2)C(=O)N(C)[C@@H](C2CCCC2)C(=O)N(C)[C@H](C(=O)N2CCC2)CC(=O)N1C [PP1943]	9.2	0.11	B (a compound having 3 or more and less than 10 is denoted as B)	A (a compound having 10 or more and less than 20 is denoted as A)

These reach a lower IC50 [1]. Values come first.

IC50 [1] [nM]	Kd [4] [nM]	Structure (SMILES)	HRAS/KRAS (KD ratio) [2]	NRAS/KRAS (KD ratio) [3]
5.1	0.036	CCO[C@@H]1C[C@H]2C(=O)NC3(CC(C)(C)C3)C(=O)N(C)[C@@H](C3CCCC3)C(=O)N(C)[C@H](C(=O)N(C)C)CC(=O)N(C)[C@@H](C)C(=O)N[C@@H]([C@@H](C)CC)C(=O)N(C)CC(=O)N(C)[C@H]3C/C=C\CCN(C3=O)[C@@H](Cc3ccc(C(F)(F)F)cc3)C(=O)N(C)CC(=O)N[C@@H](CCc3ccc(C(F)(F)F)c(OC)c3)C(=O)N2C1 [PP1674]	A (a compound having 10 or more and less than 20 is denoted as A)	A (a compound having 10 or more and less than 20 is denoted as A)
3.6	0.13	CCC[C@H]1C(=O)N[C@@H]([C@@H](C)CC)C(=O)N(C)CC(=O)N(C)[C@H]2C/C=C\CCN(C2=O)[C@@H](Cc2ccc(C(F)(F)F)cc2)C(=O)N(C)CC(=O)N[C@@H](CCc2cc(F)c(C(F)(F)F)c(F)c2)C(=O)N2C[C@H](OCC)C[C@H]2C(=O)NC2(CC(F)(F)C2)C(=O)N(C)[C@@H](C2CCCC2)C(=O)N(C)[C@H](C(=O)N(C)CCC)CC(=O)N1C [PP1736]	A (a compound having 10 or more and less than 20 is denoted as A)	A (a compound having 10 or more and less than 20 is denoted as A)
2.5	0.067	CCCOC[C@H]1C(=O)N[C@@H]([C@@H](C)CC)C(=O)N(C)CC(=O)N(C)[C@H]2C/C=C\CCN(C2=O)[C@@H](Cc2ccc(C(F)(F)F)cc2)C(=O)N(C)CC(=O)N[C@@H](CCc2cc(F)c(C(F)(F)F)c(F)c2)C(=O)N2CC(F)(F)C[C@H]2C(=O)NC2(CC(C)(C)C2)C(=O)N(C)[C@@H](C2CCCC2)C(=O)N(C)[C@H](C(=O)N(C)C)CC(=O)N1C [PP1718]	A (a compound having 10 or more and less than 20 is denoted as A)	AA (a compound having 20 or more is denoted as AA)
2.3	0.079	CCO[C@@H]1C[C@H]2C(=O)NC3(CC(C)(C)C3)C(=O)N(C)[C@@H](C3CCCC3)C(=O)N(C)[C@H](C(=O)N(C)C)CC(=O)N(C)[C@@H](CC3CCC3)C(=O)N[C@@H]([C@@H](C)CC)C(=O)N(C)CC(=O)N(C)[C@H]3C/C=C\CCN(C3=O)[C@@H](Cc3ccc(C(F)(F)F)cc3)C(=O)N(C)CC(=O)N[C@@H](CCc3cc(F)c(C(F)(F)F)c(F)c3)C(=O)N2C1 [PP1651]	B (a compound having 3 or more and less than 10 is denoted as B)	A (a compound having 10 or more and less than 20 is denoted as A)
2.3	0.039	CCO[C@@H]1C[C@H]2C(=O)NC3(CC(F)(F)C3)C(=O)N(C)[C@@H](C3CCCC3)C(=O)N(C)[C@H](C(=O)N(C)C)CC(=O)N(C)[C@@H](CC(C)C)C(=O)N[C@@H]([C@@H](C)CC)C(=O)N(C)CC(=O)N(C)[C@H]3C/C=C\CCN(C3=O)[C@@H](Cc3ccc(C(F)(F)F)cc3)C(=O)N(C)CC(=O)N[C@@H](CCc3cc(F)c(C(F)(F)F)c(F)c3)C(=O)N2C1 [PP1741]	B (a compound having 3 or more and less than 10 is denoted as B)	A (a compound having 10 or more and less than 20 is denoted as A)
2.1	0.024	CCO[C@@H]1C[C@H]2C(=O)N(C)C3(CCC3)C(=O)N(C)[C@@H](C3CCCC3)C(=O)N(C)[C@H](C(=O)N(C)C)CC(=O)N(C)[C@@H](CC)C(=O)N[C@@H]([C@@H](C)CC)C(=O)N(C)CC(=O)N(C)[C@H]3C/C=C\CCN(C3=O)[C@@H](Cc3ccc(C)cc3)C(=O)N(C)CC(=O)N[C@@H](CCc3cc(F)c(C(F)(F)F)c(F)c3)C(=O)N2C1 [PP1781]	B (a compound having 3 or more and less than 10 is denoted as B)	A (a compound having 10 or more and less than 20 is denoted as A)
2	0.06	CCCOC[C@H]1C(=O)N[C@@H]([C@@H](C)CC)C(=O)N(C)CC(=O)N(C)[C@H]2C/C=C\CCN(C2=O)[C@@H](Cc2ccc(C(F)(F)F)cc2)C(=O)N(C)CC(=O)N[C@@H](CCc2ccc(C(F)(F)F)c(OC)c2)C(=O)N2C[C@H](OCC)C[C@H]2C(=O)NC2(CC(C)(C)C2)C(=O)N(C)[C@@H](C2CCCC2)C(=O)N(C)[C@H](C(=O)N(C)C)CC(=O)N1C [PP1657]	B (a compound having 3 or more and less than 10 is denoted as B)	A (a compound having 10 or more and less than 20 is denoted as A)
1.6	0.051	CCO[C@@H]1C[C@H]2C(=O)NC3(CC(F)(F)C3)C(=O)N(C)[C@@H](C3CCCC3)C(=O)N(C)[C@H](C(=O)N(C)C)CC(=O)N(C)[C@@H](CC3CCC3)C(=O)N[C@@H]([C@@H](C)CC)C(=O)N(C)CC(=O)N(C)[C@H]3C/C=C\CCN(C3=O)[C@@H](Cc3ccc(C(F)(F)F)cc3)C(=O)N(C)CC(=O)N[C@@H](CCc3cc(F)c(C(F)(F)F)c(F)c3)C(=O)N2C1 [PP1742]	A (a compound having 10 or more and less than 20 is denoted as A)	A (a compound having 10 or more and less than 20 is denoted as A)
